# From patent US20240002393A1, “SUBSTITUTED BENZO[f][l ,2,4JTRIAZOL0[4,3-a][l ,4J[…] GABA A GAMMA! POSITIVE ALLOSTERIC MODULATORS” (Hoffmann-La Roche Inc., priority 2020, published 2024)
# Molecular target: h-GABA-A α2β2γ1 (Homo sapiens (Human), UniProt P47869+Q8N1C3)
# Test: Two-electrode voltage clamp electrophysiology in Xenopus oocytes expressing GABAA receptors
# Format: cell-based
# Details: for Efficacy (GABA)%: % modulation of GABA EC20 = 100*(Fold increase−1), compound at 30-fold Ki; for Fold increase h-GABA-A α2β2γ1 oocyte @ 30-fold Ki: GABA EC20, test compound at about 30-fold its Ki α2β2γ1, at least 3 oocytes
# Procedure: Xenopus laevis oocytes at maturation stages V-VI were used for the expression of cloned mRNA encoding GABAA receptor subunits. Oocytes ready for RNA micro-injection were bought from Ecocyte, Castrop-Rauxel, Germany and stored in modified Barth's medium (composition in mM: NaCl 88, KCl 1, NaHCO3 2.4, HEPES 10, MgSO4 0.82, CaNO3 0.33, CaCl2 0.33, pH=7.5) at 20° C. until the experiment.
# Oocytes were plated in 96-well plates for microinjection using the Roboinject automated instrument (MultiChannelSystems, Reutlingen, Germany). Approximately 50 nL of an aqueous solution containing the RNA transcripts for the subunits of the desired GABAA receptor subtype was injected into each oocyte. […] Oocytes were kept in modified Barth's medium (composition in mM: NaCl 88, KCl 1, NaHCO3 […], HEPES 10, MgSO4 0.82, CaNO3 0.33, CaCl2 0.33, pH=7.5) at 20° C. until the experiment.
# Electrophysiological experiments were performed using the Roboocyte instrument (MultiChannelSystems, Reutlingen, Germany) on days 3 to 5 after the micro-injection of mRNA. During the experiment the oocytes were constantly superfused by a solution containing (in mM) NaCl 90, KCl 1, HEPES 5, MgCl2 1 CaCl2 1 (pH 7.4). Oocytes were impaled by two glass microelectrodes (resistance: 0.5-0.8 MΩ) which were filled with a solution containing KCl 1M+K-acetate 1.5 M and voltage-clamped to −80 mV. The recordings were performed at room temperature using the Roboocyte two-electrode voltage clamp system (Multichannelsystem). After an initial equilibration period of 1.5 min GABA was added for 1.5 min at a concentration evoking approximately 20% of a maximal current response (EC20). After another rest interval of 2.5 min GABA was again added evoking a response of similar amplitude and shape. […] Current traces were recorded at a digitization rate of 10 Hz during and shortly before and after the GABA application.
# Each compound and concentration was tested on at least 3 oocytes. Different oocytes were used for different compound concentrations.
# For the analysis, the digitized current traces of the first and second GABA response were superimposed and, if necessary, rescaled to equal maximal amplitudes. The ratio between the two responses during the time interval of test compound application was calculated point by point. The extremum of the resulting “ratio trace” was taken as the efficacy (“Fold increase”) of the compound expressed as “% modulation of GABA EC20” (100*(Fold increase−1)).
SMILES,Efficacy (GABA)%,Fold increase h-GABA-A α2β2γ1 oocyte @ 30-fold Ki
"Cc1nnc2n1-c1ccc(Br)c(Cl)c1C(c1ncccc1F)=N[C@H]2C [Example 85, (4S)-8-bromo-7-chloro-6-(3-fluoro-2-pyridyl)-1,4-dimethyl-4H-[1,2,4]triazolo[4,3-a][1,4]benzodiazepine]",114%,2.14
"Cc1ccc(-c2nnc3n2-c2ccc(Cl)c(Cl)c2C(c2c(F)cccc2F)=N[C@H]3C)nn1 [Example 86, (4S)-7,8-dichloro-6-(2,6-difluorophenyl)-4-methyl-1-(6-methylpyridazin-3-yl)-4H-[1,2,4]triazolo[4,3-a][1,4]benzodiazepine]",80%,1.80
"Cc1cc(-c2nnc3n2-c2ccc(Cl)c(Cl)c2C(c2c(F)cccc2F)=N[C@H]3C)on1 [Example 87, 5-[(4S)-7,8-dichloro-6-(2,6-difluorophenyl)-4-methyl-4H-[1,2,4]triazolo[4,3-a][1,4]benzodiazepin-1-yl]-3-methyl-isoxazole]",42%,1.42
"Cc1ccc(-c2nnc3n2-c2ccc(Cl)c(Br)c2C(c2c(F)cccc2F)=N[C@H]3C)nn1 [Example 88, (4S)-7-bromo-8-chloro-6-(2,6-difluorophenyl)-4-methyl-1-(6-methylpyridazin-3-yl)-4H-[1,2,4]triazolo[4,3-a][1,4]benzodiazepine]",105%,2.05
"C[C@@H]1N=C(c2c(F)cccc2F)c2c(ccc(Cl)c2Br)-n2c1n[nH]c2=O [Example 89, (4S)-7-bromo-8-chloro-6-(2,6-difluorophenyl)-4-methyl-2,4-dihydro-[1,2,4]triazolo[4,3-a][1,4]benzodiazepin-1-one]",88%,1.88
"Cc1nnc2n1-c1ccc(C(F)(F)F)c(Cl)c1C(c1c(F)cccc1F)=N[C@H]2C [Example 92, (4S)-7-chloro-6-(2,6-difluorophenyl)-1,4-dimethyl-8-(trifluoromethyl)-4H-[1,2,4]triazolo[4,3-a][1,4]benzodiazepine]",92%,1.92
"Cc1nnc2n1-c1ccc(C(C)(F)F)c(Cl)c1C(c1c(F)cccc1F)=N[C@H]2C [Example 93, (4S)-7-chloro-8-(1,1-difluoroethyl)-6-(2,6-difluorophenyl)-1,4-dimethyl-4H-[1,2,4]triazolo[4,3-a][1,4]benzodiazepine]",169%,2.69
"Cc1cc(-c2nnc3n2-c2ccc(Cl)c(Cl)c2C(c2c(F)cccc2F)=N[C@H]3C)ncn1 [Example 94, (4S)-7,8-dichloro-6-(2,6-difluorophenyl)-4-methyl-1-(6-methylpyrimidin-4-yl)-4H-[1,2,4]triazolo[4,3-a][1,4]benzodiazepine]",47%,1.47
"Cc1nccc(-c2nnc3n2-c2ccc(Cl)c(Cl)c2C(c2c(F)cccc2F)=N[C@H]3C)n1 [Example 95, (4S)-7,8-dichloro-6-(2,6-difluorophenyl)-4-methyl-1-(2-methylpyrimidin-4-yl)-4H-[1,2,4]triazolo[4,3-a][1,4]benzodiazepine]",53%,1.53
"Cc1cc(-c2nnc3n2-c2ccc(Cl)c(Cl)c2C(c2c(F)cccc2F)=N[C@H]3C)nc(C)n1 [Example 96, (4S)-7,8-dichloro-6-(2,6-difluorophenyl)-1-(2,6-dimethylpyrimidin-4-yl)-4-methyl-4H-[1,2,4]triazolo[4,3-a][1,4]benzodiazepine]",52%,1.52
"Cc1ccc2c(c1Cl)C(c1c(F)cccc1F)=N[C@@H](C)c1nnc(C)n1-2 [Example 97, (4S)-7-chloro-6-(2,6-difluorophenyl)-1,4,8-trimethyl-4H-[1,2,4]triazolo[4,3-a][1,4]benzodiazepine]",148%,2.48
"CC[C@@H]1N=C(c2c(F)cccc2F)c2c(ccc(Br)c2Cl)-n2c(C)nnc21 [Example 98, (4S)-8-bromo-7-chloro-6-(2,6-difluorophenyl)-4-ethyl-1-methyl-4H-[1,2,4]triazolo[4,3-a][1,4]benzodiazepine]",107%,2.07
"Cc1nnc2n1-c1ccc(C(F)F)c(Cl)c1C(c1c(F)cccc1F)=N[C@H]2C [Example 99, (4S)-7-chloro-8-(difluoromethyl)-6-(2,6-difluorophenyl)-1,4-dimethyl-4H-[1,2,4]triazolo[4,3-a][1,4]benzodiazepine]",135%,2.35
"COC[C@@H]1N=C(c2c(F)cccc2F)c2c(ccc(Br)c2Cl)-n2c(C)nnc21 [Example 100, (4R)-8-bromo-7-chloro-6-(2,6-difluorophenyl)-4-(methoxymethyl)-1-methyl-4H-[1,2,4]triazolo[4,3-a][1,4]benzodiazepine]",64%,1.64
"Cc1nnc2n1-c1ccc(Br)c(Cl)c1C(c1c(F)cccc1F)=N[C@H]2CO [Example 101, [(4R)-8-bromo-7-chloro-6-(2,6-difluorophenyl)-1-methyl-4H-[1,2,4]triazolo[4,3-a][1,4]benzodiazepin-4-yl]methanol]",119%,2.19
"Cc1nnc2n1-c1ccc(I)c(Cl)c1C(c1c(F)cccc1F)=N[C@H]2C [Example 102, (4S)-7-chloro-6-(2,6-difluorophenyl)-8-iodo-1,4-dimethyl-4H-[1,2,4]triazolo[4,3-a][1,4]benzodiazepine]",89%,1.89
"C[C@@H]1N=C(c2c(F)cccc2F)c2c(ccc(C(F)(F)F)c2Cl)-n2c(CO)nnc21 [Example 103, [(4S)-7-chloro-6-(2,6-difluorophenyl)-4-methyl-8-(trifluoromethyl)-4H-[1,2,4]triazolo[4,3-a][1,4]benzodiazepin-1-yl]methanol]",123%,2.23
"COC[C@@H]1N=C(c2c(F)cccc2F)c2c(ccc(C(F)(F)F)c2Cl)-n2c(C)nnc21 [Example 105, (4R)-7-chloro-6-(2,6-difluorophenyl)-4-(methoxymethyl)-1-methyl-8-(trifluoromethyl)-4H-[1,2,4]triazolo[4,3-a][1,4]benzodiazepine]",75%,1.75
"Cc1nnc2n1-c1ccc(C(F)(F)F)c(Cl)c1C(c1c(F)cccc1F)=N[C@H]2CO [Example 106, [(4R)-7-chloro-6-(2,6-difluorophenyl)-1-methyl-8-(trifluoromethyl)-4H-[1,2,4]triazlo[4,3-a][1,4]benzodiazepin-4-yl]methanol]",121%,2.21
"C[C@@H]1N=C(c2c(F)cccc2F)c2c(ccc(C(F)(F)F)c2Cl)-n2cnnc21 [Example 107, (4S)-7-chloro-6-(2,6-difluorophenyl)-4-methyl-8-(trifluoromethyl)-4H-[1,2,4]triazolo[4,3-a][1,4]benzodiazepine]",147%,2.47
"CCc1ccc2c(c1Cl)C(c1c(F)cccc1F)=N[C@@H](C)c1nnc(C)n1-2 [Example 109, (4S)-7-chloro-6-(2,6-difluorophenyl)-8-ethyl-1,4-dimethyl-4H-[1,2,4]triazolo[4,3-a][1,4]benzodiazepine]",230%,3.30
